Key:
Assay in all cases: 26-kinase panel mobility shift assay, single concentration
Type in all cases: biochemical
AurB = AurB (Homo sapiens, UniProt Q96GD4); details: read-out: % Inhibition AurB
Protocol: Mobility Shift Assay Protocol
(§1) Screening of 26 kinases using a mobility shift assay
(§2) A mobility shift assay to determine kinase inhibition was carried out using a
(§3) modified version of the ProfilerPro assay kit 1 (Perkin Elmer, Coventry, UK)
(§4) including MPS1 and Aurora B. Each kit contained an enzyme plate, a substrate
(§5) plate, reconstitution buffer, 1 M DTT, protease inhibitor cocktail and termination
(§6) buffer. Test compounds were added as a solution in DMSO.
(§7) peptide phosphorylation assay was carried out as per the manufacturer’s
(§8) instructions. The electrophoretic separation and analysis of the phosphorylated
(§9) and non-phosphorylated peptides was carried out on a 4-sipper chip using a
(§10) LabChip EZReader II (Perkin Elmer). Results were expressed as % inhibition of
(§11) peptide phosphorylation relative to control wells for 0 % (no test compound) and
(§12) 100 % (no ATP) inhibition. The percentage inhibition was calculated using the
(§13) % Inhibition = [1 - (% Conversion Sample / % Conversion 0% Inhibition Control)] x 100

SRC = target: T1, SRC (Homo sapiens, UniProt P12931); details: read-out: % Inhibition SRC
T1 construct: purchased Perkin Elmer (ProfilerPro assay kit 1)
Protocol: (§14) In order to test the biochemical activity of our fragment library, a panel of 26 structurally diverse protein kinases was used.
as §1, §2, §3, §4, §5, §6, §7, §8, §9, §10, §11, §12, §13

RSK1 = target: T2, RSK1 (Homo sapiens, UniProt Q15418); details: read-out: % Inhibition RSK1
T2 construct: purchased Perkin Elmer (ProfilerPro assay kit 1)
Protocol: Mobility Shift Assay Protocol
as §1, §2, §3, §4, §5, §6, §7, §8, §9, §10, §11, §12, §13

PRAK = target: T3, PRAK (Homo sapiens, UniProt Q8IW41); details: read-out: % Inhibition PRAK
T3 construct: purchased Perkin Elmer (ProfilerPro assay kit 1)
T3 sequence (Q8IW41 1-473): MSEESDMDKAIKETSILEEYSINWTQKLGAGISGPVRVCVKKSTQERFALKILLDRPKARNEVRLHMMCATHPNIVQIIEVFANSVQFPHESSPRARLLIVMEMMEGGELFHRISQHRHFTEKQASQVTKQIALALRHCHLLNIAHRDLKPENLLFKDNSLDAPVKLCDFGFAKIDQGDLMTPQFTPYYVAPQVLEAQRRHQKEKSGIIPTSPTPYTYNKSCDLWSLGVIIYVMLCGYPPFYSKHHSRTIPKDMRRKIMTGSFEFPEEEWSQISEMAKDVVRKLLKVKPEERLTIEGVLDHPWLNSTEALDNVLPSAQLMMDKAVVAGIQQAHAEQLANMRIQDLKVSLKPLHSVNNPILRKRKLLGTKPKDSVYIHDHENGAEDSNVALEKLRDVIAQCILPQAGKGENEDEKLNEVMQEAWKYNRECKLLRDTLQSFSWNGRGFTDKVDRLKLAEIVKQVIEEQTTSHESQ
Protocol: as §2, §3, §4, §5, §6
final concentration. […] The
as §7, §8, §9, §10, §11, §12, §13

PKD2 = target: T4, PKD2 (Homo sapiens, UniProt Q9BZL6); details: read-out: % Inhibition PKD2
T4 construct: purchased Perkin Elmer (ProfilerPro assay kit 1)
T4 sequence (Q9BZL6 1-878): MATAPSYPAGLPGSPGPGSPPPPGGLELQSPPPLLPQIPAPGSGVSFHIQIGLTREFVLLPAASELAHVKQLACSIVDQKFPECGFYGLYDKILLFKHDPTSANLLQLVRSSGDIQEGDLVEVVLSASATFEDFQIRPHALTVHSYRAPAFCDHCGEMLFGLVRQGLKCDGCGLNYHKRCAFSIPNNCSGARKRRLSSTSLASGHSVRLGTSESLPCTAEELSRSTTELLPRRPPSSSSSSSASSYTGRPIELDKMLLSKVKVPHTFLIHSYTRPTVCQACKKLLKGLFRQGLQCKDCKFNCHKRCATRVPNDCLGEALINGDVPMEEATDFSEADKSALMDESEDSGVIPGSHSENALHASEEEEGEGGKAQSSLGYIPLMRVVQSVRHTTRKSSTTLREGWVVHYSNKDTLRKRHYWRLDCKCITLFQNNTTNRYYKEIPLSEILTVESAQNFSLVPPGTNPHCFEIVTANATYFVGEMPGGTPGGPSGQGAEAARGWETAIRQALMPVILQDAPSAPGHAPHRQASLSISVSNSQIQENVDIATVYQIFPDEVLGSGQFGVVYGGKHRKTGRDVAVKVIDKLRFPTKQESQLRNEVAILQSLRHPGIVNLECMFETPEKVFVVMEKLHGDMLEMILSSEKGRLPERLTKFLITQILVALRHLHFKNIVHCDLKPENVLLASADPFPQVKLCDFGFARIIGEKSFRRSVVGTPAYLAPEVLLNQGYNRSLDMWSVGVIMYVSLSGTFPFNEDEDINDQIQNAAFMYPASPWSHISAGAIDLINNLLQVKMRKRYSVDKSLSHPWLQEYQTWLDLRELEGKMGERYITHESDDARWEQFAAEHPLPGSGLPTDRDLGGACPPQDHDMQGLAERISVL
Protocol: as §14, §1, §2, §3, §4, §5, §6, §7, §8, §9, §10, §11, §12, §13

PKA = target: T5, PKA (Homo sapiens, UniProt P17612); details: read-out: % Inhibition PKA
T5 construct: purchased Perkin Elmer (ProfilerPro assay kit 1)
Protocol: as §14
Mobility Shift Assay Protocol
as §1, §2, §3, §4, §5, §6
final concentration. […] The
as §7, §8, §9, §10, §11, §12, §13

p38 = target: T6, p38 (Homo sapiens, UniProt Q16539); details: read-out: % Inhibition p38
T6 construct: purchased Perkin Elmer (ProfilerPro assay kit 1)
T6 sequence (Q16539 whole entry): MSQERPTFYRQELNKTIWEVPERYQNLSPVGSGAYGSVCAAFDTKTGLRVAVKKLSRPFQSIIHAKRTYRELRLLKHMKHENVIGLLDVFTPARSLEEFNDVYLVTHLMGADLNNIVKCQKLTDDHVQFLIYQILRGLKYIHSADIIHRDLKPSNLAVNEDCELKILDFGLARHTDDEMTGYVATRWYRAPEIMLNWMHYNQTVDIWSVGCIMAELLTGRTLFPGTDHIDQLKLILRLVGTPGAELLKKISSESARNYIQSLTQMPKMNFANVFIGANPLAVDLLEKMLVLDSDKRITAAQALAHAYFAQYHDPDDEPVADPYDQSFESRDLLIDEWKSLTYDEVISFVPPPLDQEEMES
Protocol: as §14
Mobility Shift Assay Protocol
as §1, §2, §3, §4, §5, §6
final concentration. […] The
as §7, §8, §9, §10, §11, §12, §13

MSK1 = target: T7, MSK1 (Homo sapiens, UniProt O75582); details: read-out: % Inhibition MSK1
T7 construct: purchased Perkin Elmer (ProfilerPro assay kit 1)
T7 sequence (O75582 whole entry): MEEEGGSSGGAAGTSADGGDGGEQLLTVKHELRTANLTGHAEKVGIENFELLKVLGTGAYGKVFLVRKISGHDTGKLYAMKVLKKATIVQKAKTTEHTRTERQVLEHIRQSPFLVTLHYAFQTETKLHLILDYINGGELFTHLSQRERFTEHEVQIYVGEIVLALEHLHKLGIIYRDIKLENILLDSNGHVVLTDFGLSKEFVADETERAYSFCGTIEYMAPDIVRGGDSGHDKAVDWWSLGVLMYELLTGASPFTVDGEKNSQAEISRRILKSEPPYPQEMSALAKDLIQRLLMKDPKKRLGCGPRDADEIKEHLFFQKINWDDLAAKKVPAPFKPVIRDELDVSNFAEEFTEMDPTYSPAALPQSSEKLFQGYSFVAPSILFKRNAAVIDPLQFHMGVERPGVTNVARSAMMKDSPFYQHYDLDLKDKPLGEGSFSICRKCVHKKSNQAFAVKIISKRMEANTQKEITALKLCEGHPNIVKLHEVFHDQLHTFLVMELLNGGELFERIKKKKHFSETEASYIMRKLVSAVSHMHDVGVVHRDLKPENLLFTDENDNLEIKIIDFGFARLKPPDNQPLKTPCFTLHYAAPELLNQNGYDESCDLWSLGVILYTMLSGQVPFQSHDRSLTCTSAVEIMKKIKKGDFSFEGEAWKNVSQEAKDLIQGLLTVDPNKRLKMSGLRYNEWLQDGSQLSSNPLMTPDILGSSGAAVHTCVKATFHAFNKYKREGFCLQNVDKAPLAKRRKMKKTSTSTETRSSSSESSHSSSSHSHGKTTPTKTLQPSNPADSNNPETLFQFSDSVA
Protocol: as §14
Mobility Shift Assay Protocol
as §1, §2, §3, §4, §5, §6
final concentration. […] The
as §7, §8, §9, §10, §11, §12, §13

MAPKAPK2 = target: T8, MAPKAPK2 (Homo sapiens, UniProt P49137); details: read-out: % Inhibition MAPKAPK2
T8 construct: purchased Perkin Elmer (ProfilerPro assay kit 1)
T8 sequence (P49137 whole entry): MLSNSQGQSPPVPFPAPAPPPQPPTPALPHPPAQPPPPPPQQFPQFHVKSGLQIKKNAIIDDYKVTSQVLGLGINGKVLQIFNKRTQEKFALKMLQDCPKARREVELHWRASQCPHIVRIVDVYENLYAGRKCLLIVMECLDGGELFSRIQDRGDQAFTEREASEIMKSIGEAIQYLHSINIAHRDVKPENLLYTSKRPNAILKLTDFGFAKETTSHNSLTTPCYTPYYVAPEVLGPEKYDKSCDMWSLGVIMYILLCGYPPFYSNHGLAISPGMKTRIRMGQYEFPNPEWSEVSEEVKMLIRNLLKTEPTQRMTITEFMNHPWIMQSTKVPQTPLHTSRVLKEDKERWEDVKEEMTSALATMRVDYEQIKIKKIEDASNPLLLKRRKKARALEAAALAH
Protocol: as §2, §3, §4, §5, §6, §7, §8, §9, §10, §11, §12, §13

LYN = target: T9, LYN (Homo sapiens, UniProt P07948); details: read-out: % Inhibition LYN
T9 construct: purchased Perkin Elmer (ProfilerPro assay kit 1)
T9 sequence (P07948 whole entry): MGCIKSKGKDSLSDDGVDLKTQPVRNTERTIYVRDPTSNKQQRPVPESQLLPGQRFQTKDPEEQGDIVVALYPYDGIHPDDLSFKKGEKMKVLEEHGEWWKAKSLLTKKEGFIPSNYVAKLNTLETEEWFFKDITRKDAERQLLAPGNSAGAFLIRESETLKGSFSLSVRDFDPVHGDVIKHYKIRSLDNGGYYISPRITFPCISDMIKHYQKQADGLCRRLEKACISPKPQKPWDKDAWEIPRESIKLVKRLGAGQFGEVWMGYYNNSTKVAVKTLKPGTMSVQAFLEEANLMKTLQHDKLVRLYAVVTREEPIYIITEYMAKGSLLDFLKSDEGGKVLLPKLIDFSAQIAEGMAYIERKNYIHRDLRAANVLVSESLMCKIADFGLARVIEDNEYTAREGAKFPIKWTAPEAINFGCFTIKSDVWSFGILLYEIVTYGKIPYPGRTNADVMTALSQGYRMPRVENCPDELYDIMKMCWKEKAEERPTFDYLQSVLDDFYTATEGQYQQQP
Protocol: as §2, §3, §4, §5, §6, §7, §8, §9, §10, §11, §12, §13

LCK = target: T10, LCK (Homo sapiens, UniProt P06239); details: read-out: % Inhibition LCK
T10 construct: purchased Perkin Elmer (ProfilerPro assay kit 1)
Protocol: as §2, §3, §4, §5, §6, §7, §8, §9, §10, §11, §12, §13

INSR = target: T11, INSR (Homo sapiens, UniProt P06213); details: read-out: % Inhibition INSR
T11 construct: purchased Perkin Elmer (ProfilerPro assay kit 1)
Protocol: as §14, §1, §2, §3, §4, §5, §6, §7, §8, §9, §10, §11, §12, §13

GSK3b = target: T12, GSK3b (Homo sapiens, UniProt P49841); details: read-out: % Inhibition GSK3
T12 construct: purchased Perkin Elmer (ProfilerPro assay kit 1)
T12 sequence (P49841 whole entry): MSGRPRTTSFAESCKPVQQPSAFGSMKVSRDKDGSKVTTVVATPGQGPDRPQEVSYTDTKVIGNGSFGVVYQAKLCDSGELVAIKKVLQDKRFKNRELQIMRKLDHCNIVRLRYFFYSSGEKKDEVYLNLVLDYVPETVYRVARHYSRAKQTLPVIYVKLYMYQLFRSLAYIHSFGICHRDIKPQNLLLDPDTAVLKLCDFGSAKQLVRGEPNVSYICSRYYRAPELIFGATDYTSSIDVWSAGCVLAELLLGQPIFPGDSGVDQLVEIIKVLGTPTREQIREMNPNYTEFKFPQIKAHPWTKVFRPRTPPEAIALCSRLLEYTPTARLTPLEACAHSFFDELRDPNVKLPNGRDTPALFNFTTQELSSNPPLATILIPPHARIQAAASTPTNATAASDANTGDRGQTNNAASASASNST
Protocol: as §2, §3, §4, §5, §6, §7, §8, §9, §10, §11, §12, §13

FYN = target: T13, FYN (Homo sapiens, UniProt P06241); details: read-out: % Inhibition FYN
T13 construct: purchased Perkin Elmer (ProfilerPro assay kit 1)
T13 sequence (P06241 whole entry): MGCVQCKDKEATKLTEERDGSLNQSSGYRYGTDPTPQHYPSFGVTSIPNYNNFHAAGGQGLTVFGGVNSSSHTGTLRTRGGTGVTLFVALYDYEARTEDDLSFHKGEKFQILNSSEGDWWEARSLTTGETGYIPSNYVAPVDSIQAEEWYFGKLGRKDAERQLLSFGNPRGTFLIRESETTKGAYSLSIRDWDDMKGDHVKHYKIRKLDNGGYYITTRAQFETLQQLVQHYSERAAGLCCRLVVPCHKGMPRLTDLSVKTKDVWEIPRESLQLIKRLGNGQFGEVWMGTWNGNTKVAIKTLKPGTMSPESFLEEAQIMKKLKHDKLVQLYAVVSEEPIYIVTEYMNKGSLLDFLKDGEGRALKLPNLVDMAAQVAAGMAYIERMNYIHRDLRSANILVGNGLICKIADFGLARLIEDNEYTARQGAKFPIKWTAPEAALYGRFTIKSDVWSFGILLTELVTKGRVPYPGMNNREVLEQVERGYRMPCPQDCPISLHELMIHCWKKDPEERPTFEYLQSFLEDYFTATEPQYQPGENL
Protocol: as §2, §3, §4, §5, §6, §7, §8, §9, §10, §11, §12, §13

Erk2 = target: T14, Erk2 (Homo sapiens, UniProt P28482); details: read-out: % Inhibition Erk2
T14 construct: purchased Perkin Elmer (ProfilerPro assay kit 1)
T14 sequence (P28482 whole entry): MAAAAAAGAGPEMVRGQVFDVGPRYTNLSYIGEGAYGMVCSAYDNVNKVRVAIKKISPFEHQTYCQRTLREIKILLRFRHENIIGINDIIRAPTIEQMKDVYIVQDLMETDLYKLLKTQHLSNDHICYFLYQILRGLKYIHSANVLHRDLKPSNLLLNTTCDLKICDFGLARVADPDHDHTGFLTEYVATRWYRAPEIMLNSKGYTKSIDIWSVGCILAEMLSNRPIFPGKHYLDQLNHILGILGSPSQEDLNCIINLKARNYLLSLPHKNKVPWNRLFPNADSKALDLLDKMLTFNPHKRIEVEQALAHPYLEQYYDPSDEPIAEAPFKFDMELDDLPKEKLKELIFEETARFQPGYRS
Protocol: as §2, §3, §4, §5, §6, §7, §8, §9, §10, §11, §12, §13

Erk1 = target: T15, Erk1 (Homo sapiens, UniProt P27361); details: read-out: % Inhibition Erk1
T15 construct: purchased Perkin Elmer (ProfilerPro assay kit 1)
Protocol: as §2, §3, §4, §5, §6, §7, §8, §9, §10, §11, §12, §13

CK1d = target: T16, CK1d (Homo sapiens, UniProt P48730); details: read-out: % Inhibition CK1d
T16 construct: purchased Perkin Elmer (ProfilerPro assay kit 1)
T16 sequence (P48730 whole entry): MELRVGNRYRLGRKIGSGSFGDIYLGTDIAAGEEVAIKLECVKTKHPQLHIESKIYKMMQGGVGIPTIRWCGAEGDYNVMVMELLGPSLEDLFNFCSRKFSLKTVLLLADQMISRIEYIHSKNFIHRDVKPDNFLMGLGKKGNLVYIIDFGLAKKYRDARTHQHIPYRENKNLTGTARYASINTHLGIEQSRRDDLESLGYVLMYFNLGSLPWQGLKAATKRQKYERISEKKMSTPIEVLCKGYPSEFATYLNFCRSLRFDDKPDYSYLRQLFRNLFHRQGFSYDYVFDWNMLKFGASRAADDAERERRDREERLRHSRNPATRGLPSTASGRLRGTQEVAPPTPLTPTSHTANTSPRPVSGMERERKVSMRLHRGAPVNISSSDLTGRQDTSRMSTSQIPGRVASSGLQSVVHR
Protocol: as §2, §3, §4, §5, §6, §7, §8, §9, §10, §11, §12, §13

CHK2 = target: T17, CHK2 (Homo sapiens, UniProt O96017); details: read-out: % Inhibition CHK2
T17 construct: purchased Perkin Elmer (ProfilerPro assay kit 1)
T17 sequence (O96017 whole entry): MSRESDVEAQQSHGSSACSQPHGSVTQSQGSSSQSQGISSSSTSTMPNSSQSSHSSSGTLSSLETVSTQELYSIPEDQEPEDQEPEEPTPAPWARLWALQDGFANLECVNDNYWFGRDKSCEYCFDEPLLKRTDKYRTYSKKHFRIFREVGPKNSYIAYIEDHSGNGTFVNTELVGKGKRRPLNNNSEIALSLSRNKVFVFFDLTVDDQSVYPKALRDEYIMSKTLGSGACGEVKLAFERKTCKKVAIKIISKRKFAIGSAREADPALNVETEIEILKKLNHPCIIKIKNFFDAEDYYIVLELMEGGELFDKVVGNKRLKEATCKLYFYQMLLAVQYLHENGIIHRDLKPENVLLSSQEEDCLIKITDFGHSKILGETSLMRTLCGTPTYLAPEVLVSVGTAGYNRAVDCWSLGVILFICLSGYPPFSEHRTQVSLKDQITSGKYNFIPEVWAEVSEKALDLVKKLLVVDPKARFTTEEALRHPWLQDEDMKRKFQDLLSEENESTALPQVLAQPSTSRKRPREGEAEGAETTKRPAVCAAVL
Protocol: as §2, §3, §4, §5, §6, §7, §8, §9, §10, §11, §12, §13

AKT2 = target: T18, AKT2 (Homo sapiens, UniProt P31751); details: read-out: % Inhibition AKT2
T18 construct: purchased Perkin Elmer ProfilerPro assay kit 1
Protocol: as §14, §1, §2, §3, §4, §5, §6, §7, §8, §9, §10, §11, §12, §13

ABL = target: T19, ABL (Homo sapiens, UniProt P00519); details: read-out: % Inhibition ABL
T19 construct: purchased Perkin Elmer ProfilerPro assay kit 1
Protocol: Mobility Shift Assay Protocol
as §1, §2, §3, §4, §5, §6, §7, §8, §9, §10, §11, §12, §13

T1 sequence (P12931 whole entry): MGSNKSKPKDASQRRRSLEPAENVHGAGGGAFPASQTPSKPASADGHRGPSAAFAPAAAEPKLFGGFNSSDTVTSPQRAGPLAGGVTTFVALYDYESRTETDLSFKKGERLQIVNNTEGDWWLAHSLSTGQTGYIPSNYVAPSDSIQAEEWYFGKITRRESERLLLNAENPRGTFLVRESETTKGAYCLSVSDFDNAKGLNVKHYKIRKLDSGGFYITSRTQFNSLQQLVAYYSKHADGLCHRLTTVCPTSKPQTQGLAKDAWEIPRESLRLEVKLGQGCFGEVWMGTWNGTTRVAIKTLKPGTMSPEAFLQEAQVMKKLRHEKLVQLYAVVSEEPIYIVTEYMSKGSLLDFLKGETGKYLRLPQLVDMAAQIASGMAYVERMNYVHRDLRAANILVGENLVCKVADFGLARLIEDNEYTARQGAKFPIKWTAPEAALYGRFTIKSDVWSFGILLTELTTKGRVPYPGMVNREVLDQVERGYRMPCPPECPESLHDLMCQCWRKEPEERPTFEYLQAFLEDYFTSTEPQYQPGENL

SMILES | inhibition at 30 µM (AurB) [%] | inhibition at 30 µM (SRC) [%] | inhibition at 30 µM (RSK1) [%] | inhibition at 30 µM (PRAK) [%] | inhibition at 30 µM (PKD2) [%] | inhibition at 30 µM (PKA) [%] | inhibition at 30 µM (p38) [%] | inhibition at 30 µM (MSK1) [%] | inhibition at 30 µM (MAPKAPK2) [%] | inhibition at 30 µM (LYN) [%] | inhibition at 30 µM (LCK) [%] | inhibition at 30 µM (INSR) [%] | inhibition at 30 µM (GSK3b) [%] | inhibition at 30 µM (FYN) [%] | inhibition at 30 µM (Erk2) [%] | inhibition at 30 µM (Erk1) [%] | inhibition at 30 µM (CK1d) [%] | inhibition at 30 µM (CHK2) [%] | inhibition at 30 µM (AKT2) [%] | inhibition at 30 µM (ABL) [%] | also measured
Nc1cc(-c2ccnc(NC3CC3)n2)c[nH]c1=O [Compound 8] | – | – | – | – | – | – | – | – | – | – | – | – | – | – | – | – | – | – | – | – | inhibition at 100 µM (AurB): 79%; inhibition at 100 µM (SRC): 46%; inhibition at 100 µM (RSK1): 89%; inhibition at 100 µM (PRAK): 24%; inhibition at 100 µM (PKD2): 81%; inhibition at 100 µM (PKA): 8%; inhibition at 100 µM (p38): 12%; inhibition at 100 µM (MSK1): 27%; inhibition at 100 µM (MAPKAPK2): 28%; inhibition at 100 µM (LYN): 42%; inhibition at 100 µM (LCK): 38%; inhibition at 100 µM (INSR): 27%; inhibition at 100 µM (GSK3b): 87%; inhibition at 100 µM (FYN): 51%; inhibition at 100 µM (Erk2): 45%; inhibition at 100 µM (Erk1): 46%; inhibition at 100 µM (CK1d): 63%; inhibition at 100 µM (CHK2): 61%; inhibition at 100 µM (AKT2): 18%; inhibition at 100 µM (ABL): 43%
Cc1nc(O)c(N)cc1-c1ccncc1 [Compound 15, 3-Amino-6-methyl-5-(pyridin-4-yl)pyridin-2-one] | – | – | – | – | – | – | – | – | – | – | – | – | – | – | – | – | – | – | – | – | inhibition at 100 µM (AurB): 77%; inhibition at 100 µM (SRC): 21%; inhibition at 100 µM (RSK1): 17%; inhibition at 100 µM (PRAK): 24%; inhibition at 100 µM (PKD2): 8%; inhibition at 100 µM (PKA): 0%; inhibition at 100 µM (p38): 8%; inhibition at 100 µM (MSK1): 14%; inhibition at 100 µM (MAPKAPK2): 33%; inhibition at 100 µM (LYN): 10%; inhibition at 100 µM (LCK): 4%; inhibition at 100 µM (INSR): 23%; inhibition at 100 µM (GSK3b): 39%; inhibition at 100 µM (FYN): 6%; inhibition at 100 µM (Erk2): 11%; inhibition at 100 µM (Erk1): 11%; inhibition at 100 µM (CK1d): 33%; inhibition at 100 µM (CHK2): 42%; inhibition at 100 µM (AKT2): 17%; inhibition at 100 µM (ABL): 5%
O=C(Nc1cc(-c2ccncc2)c[nH]c1=O)c1ccccc1 [Compound 16, N-(2-Oxo-5-(pyridin-4-yl)-1,2-dihydropyridin-3-yl)benzamide] | 24 | 60 | 19 | 1 | 30 | 0 | 4 | 1 | 29 | 55 | 45 | 13 | 92 | 59 | 5 | 12 | 79 | 29 | 4 | 55 | –
CN1CCN(c2ccc(C(=O)Nc3cc(-c4ccncc4)c[nH]c3=O)cc2)CC1 [Compound 22] | 71 | 98 | 41 | 10 | 46 | 0 | 6 | 8 | 12 | 93 | 97 | 30 | 94 | 95 | 1 | 0 | 31 | 33 | 13 | 96 | –
O=C(Nc1cc(-c2ccnc(NC3CC3)n2)c[nH]c1=O)c1ccccc1 [Compound 24] | 91 | 99 | 98 | 71 | 69 | 75 | 36 | 83 | 96 | 86 | 75 | 27 | 99 | 93 | 37 | 33 | 78 | 71 | 91 | 88 | –

Source: article PMC6008489 (Bioorganic & Medicinal Chemistry, 2018)
